Measurements: US10919882B2, “Compounds for use in synthesis of peptidomimetics” (THE FEINSTEIN INSTITUTES FOR MEDICAL RESEARCH, priority 2019, dated 2021)

Assay: Stability of HOBt aza building blocks with Boc, Fmoc or Phth alpha-amino protection
Type: physicochemical
Source text: Assessing the Compatibility of HOBt Aza Building Blocks in the Presence of Traditional Alpha Amino Protecting Groups (e.g. Phth, Fmoc and Boc) with Other Protecting Synthesis and Stability
The issues with stability were observed when the N-1 is protected with R=Boc or Fmoc and R′═H. This is due to the presence of NH that leads to undesirable intramolecular cyclization and formation oxadiazoles (Future Med. Chem. (2011) 3(9), 1139-1164) Org. Biomol. Chem., 2015, 13, 59-63. Boc and Fmoc form an unwanted side reaction of carboxyanhydride in peptide synthesis with acid halogenation reagent (Acc. Chem. Res. 1996, 29, 268-274; J. Am. Chem. Soc. 1996, 118, 9796-9797) and in azapeptide synthesis with hydrazine component, the oxadiazalone will be formed (Journal of Peptide Science 2013, 19, 725-729).

With `O=C(On1nnc2ccccc21)N(Cc1ccccc1)N1C(=O)c2ccccc2C1=O` the “Isolated Yield and Stability (in solution)” value (in solution / organic solvents, room temperature) was “Stable in organic solvents such as acetone, dichloromethane, acetonitrile, DMF at room temperature for weeks” and the “Isolated Yield and Stability (solid form)” value (isolated product as solid) was “Stable white solid”.
